# Assay results: US20080166807A1, “Autologous progenitor stem cells of gastrointestinal origin” (priority 2005, published 2008)
# Where “and” joins values, the source holds several entries; their conditions need not be identical. Identical values can stand only once.
# Test system: GIP-C cells
# Experiment: Attachment factors study with subcultured GIP-C cells (cell counts in supernatant and of attached cells)
# Format: cell-based
# Conditions: for Attaching of cells from 2-5 μm (comparison of attachment factors): cells 2-5 μm; for Cell counts in Supernatant, 2-5 μm / Cell counts in Supernatant, 5-8 μm / Cell counts of Attached cells, 2-5 μm / Cell counts of Attached cells, 5-8 μm: wells coated with attachment factor, RPMI 1640 media with supplements, two wells each
# Method: Two of the six well plates were coated with the following attachment factors: Collagen type IV, Fibronectin, Superfibronectin, ECM gel and Laminin. Collagen type IV (2 mg/ml) was made by dissolving 0.75 mg of collagen in 375 μl of sterilized 0.25% acetic acid. Collagen type IV (187.5 μl) was used to coat two wells and Incubated overnight at 2-8° C. Fibronectin (250 μl of 10 μg/ml) was used to coat each well and air-dried at room temperature for 45 minutes. Superfibronectin (250 μl of 5 μg/ml) was used to coat each well and incubated at 37° C. for two hours. The wells were then washed twice with 100 μl of PBS, and left to air dry in a laminar flow hood. ECM gel was thawed overnight before use; 250 μl of ECM gel was mixed with 250 μl of cold DMEM medium before using 250 μl of the mixture to coat precooled wells. The ECM gel was then left for five minutes at 20° C. for the gel to polymerize. An aliquot of 200 μg/200 μl of laminin was thawed at 4° C. for 2-4 hrs before making a dilution using 36 μl of stock solution and diluting it with 464 μl of sterile PBS. Laminin (250 μl, 18 μg/well) was used to coat each well. The plates with laminin were then air-dried for 45 minutes. All of the plates containing the attachment factors were sterilized overnight by exposure to UV light in a sterile tissue culture hood.
# RPMI 1640 media (250 ml) was obtained from Invitrogen (11875-085), to which the following supplements were added: 100 ng/ml of cholera-toxin (Sigma, C8052), 500 ng/ml of hydrocortisone (Sigma, H0888), 5% of heat inactivated horse serum (Gibco, 16050-130) and 25 ml of Mesenchymal supplement (Stemcell technologies, 05402). After the media was filter sterilized and aliquots of 26 ml were made, they were stored at 4° C.
# RPMI 1640 media with all the supplements was warmed at 37° C. Two ml of the media was added to each well containing the attachment factors along with 3 control wells which contained no attachment factors. Cells previously subcultured in mesencult medium were pelleted and divided into 100,000 cells per well and incubated at 37° C. The cells were observed under a phase-contrast microscope. Once, every two days the top layer containing the unattached GIP-C cells was removed, washed and resuspended in freezing media. Two ml of RPMI 1640 media with the supplements was added to the wells and incubated at 37° C.
# The gastrointestinal progenitor cells in culture were found mostly in suspension in the culture media. In order to test the adherence of these cells a study was conducted where they were plated on tissue culture wells coated with each of the five different epithelial cell attachment factors: collagen type IV, laminin, superfibronectin, fibronectin, and ECM gel. There were three control wells with no attachment factors in them.
Substance,Attaching of cells from 2-5 μm (comparison of attachment factors),"Cell counts in Supernatant, 2-5 μm","Cell counts in Supernatant, 5-8 μm","Cell counts of Attached cells, 2-5 μm","Cell counts of Attached cells, 5-8 μm"
Superfibronectin,seemed to be better at attaching cells,3.96E+07 Cells/ml and 5.06E+07 Cells/ml,67536 Cells/ml and 54672 Cells/ml,1.62E+06 Cells/ml and 1.35E+06 Cells/ml,
Laminin,,4.09E+07 Cells/ml and 3.04E+07 Cells/ml,90048 Cells/ml and 84822 Cells/ml,974448 Cells/ml and 643602 Cells/ml,40602 Cells/ml and 43416 Cells/ml
Fibronectin,,,68340 Cells/ml and 63918 Cells/ml,68340 Cells/ml,
Collagen type IV,seemed to be better at attaching cells,1.22E+07 Cells/ml and 1.60E+07 Cells/ml,,2.25E+06 Cells/ml and 1.19E+06 Cells/ml,57486 Cells/ml
